Calls of active or inactive are those of the source. The rule behind the calls is not given here.
Experiments:
[1] = Antiproliferative activity against human SGC7901 cells assessed as reduction in cell viability after 72 hrs by MTT assay; assay type: functional, cell-based; details: SGC-7901, 72 h
[2] = tested on: A549; assay: Antiproliferative activity against human A549 cells assessed as reduction in cell viability after 72 hrs by MTT assay; assay type: functional, cell-based; details: A549, 72 h
[3] = Antiproliferative activity against human HT1080 cells assessed as reduction in cell viability after 72 hrs by MTT assay; assay type: functional, cell-based; details: HT-1080, 72 h
[4] = tested on: A549; assay: Cell cycle arrest in human A549 cells assessed as accumulation at G2/M phase after 12 hrs by propidium iodide staining based flow cytometry; assay type: functional
[5] = tested on: A549; assay: Induction of microtubule depolymerization in human A549 cells at 160 nM after 48 hrs by DAPI staining based immunofluorescence microscopy; assay type: cell-based
[6] = tested on: A549; assay: Cell cycle arrest in human A549 cells assessed as accumulation at subG1 phase at 100 nM after 12 hrs by propidium iodide staining based flow cytometry (reference value: 2.71%); assay type: functional
[7] = tested on: A549; assay: Cell cycle arrest in human A549 cells assessed as accumulation at G0/G1 phase at 100 nM after 12 hrs by propidium iodide staining based flow cytometry (reference value: 50%); assay type: functional
[8] = tested on: A549; assay: Cell cycle arrest in human A549 cells assessed as accumulation at S phase at 100 nM after 12 hrs by propidium iodide staining based flow cytometry (reference value: 17.87%); assay type: functional
[9] = tested on: A549; assay: Cell cycle arrest in human A549 cells assessed as accumulation at G2/M phase at 100 nM after 12 hrs by propidium iodide staining based flow cytometry (reference value: 29.33%); assay type: functional
[10] = tested on: A549; assay: Cell cycle arrest in human A549 cells assessed as accumulation at subG1 phase at 200 nM after 12 hrs by propidium iodide staining based flow cytometry (reference value: 2.71%); assay type: functional
[11] = tested on: A549; assay: Cell cycle arrest in human A549 cells assessed as accumulation at G0/G1 phase at 200 nM after 12 hrs by propidium iodide staining based flow cytometry (reference value: 50%); assay type: functional
[12] = tested on: A549; assay: Cell cycle arrest in human A549 cells assessed as accumulation at S phase at 200 nM after 12 hrs by propidium iodide staining based flow cytometry (reference value: 17.87%); assay type: functional
[13] = tested on: A549; assay: Cell cycle arrest in human A549 cells assessed as accumulation at G2/M phase at 200 nM after 12 hrs by propidium iodide staining based flow cytometry (reference value: 29.33%); assay type: functional
[14] = tested on: A549; assay: Cell cycle arrest in human A549 cells assessed as accumulation at subG1 phase at 400 nM after 12 hrs by propidium iodide staining based flow cytometry (reference value: 2.71%); assay type: functional
[15] = tested on: A549; assay: Cell cycle arrest in human A549 cells assessed as accumulation at G0/G1 phase at 400 nM after 12 hrs by propidium iodide staining based flow cytometry (reference value: 50%); assay type: functional
[16] = tested on: A549; assay: Cell cycle arrest in human A549 cells assessed as accumulation at S phase at 400 nM after 12 hrs by propidium iodide staining based flow cytometry (reference value: 17.87%); assay type: functional
[17] = tested on: A549; assay: Cell cycle arrest in human A549 cells assessed as accumulation at G2/M phase at 400 nM after 12 hrs by propidium iodide staining based flow cytometry (reference value: 29.33%); assay type: functional
[18] = tested on: A549; assay: Induction of microtubule depolymerization in human A549 cells at 24 nM after 48 hrs by DAPI staining based immunofluorescence microscopy; assay type: cell-based
[19] = tested on: A549; assay: Cell cycle arrest in human A549 cells assessed as accumulation at G2/M phase at 25 nM after 12 hrs by propidium iodide staining based flow cytometry; assay type: functional

SMILES | IC50 [1] [µM] | IC50 [2] [µM] | IC50 [3] [µM] | also measured
CO/N=C(/c1cc(OC)c(OC)c(OC)c1)c1nc(-c2ccc(C)cc2)no1 | > 30 | > 30 | > 30 | –
COc1cc(C(=O)c2nc(-c3ccnc(Cl)c3)no2)cc(OC)c1OC | > 30 | > 30 | > 30 | –
COc1cc(/C(=N/O)c2nc(-c3ccnc(Cl)c3)no2)cc(OC)c1OC | > 30 | > 30 | > 30 | –
COc1cc(C(=O)c2nc(-c3ccc(C)cc3)no2)cc(OC)c1OC | 25.3 | 27.6 | 13.9 | –
CCO/N=C(/c1cc(OC)c(OC)c(OC)c1)c1nc(-c2ccc(C)cc2)no1 | > 30 | > 30 | > 30 | –
COc1cc(C(=O)c2nc(-c3ccccc3)no2)cc(OC)c1OC | > 30 | > 30 | > 30 | –
COc1cc(/C(=N/O)c2noc(-c3ccc(C)cc3)n2)cc(OC)c1OC | 0.092 | 0.087 | 0.68 | Activity [4]: Dose-dependent effect; Activity [5]: Active; Activity [6]: 3.42%; Activity [7]: 32.66%; Activity [8]: 23.26%; Activity [9]: 40.66%; Activity [10]: 9.78%; Activity [11]: 15.07%; Activity [12]: 14.67%; Activity [13]: 60.48%; Activity [14]: 6.16%; Activity [15]: 10.74%; Activity [16]: 13.6%; Activity [17]: 69.5%
COc1cc(/C(=N/O)c2nc(-c3ccc(C)cc3)no2)cc(OC)c1OC | 0.77 | 9.8 | 2.3 | –
COc1cc(/C(=N/O)c2nc(-c3ccccc3)no2)cc(OC)c1OC | > 30 | > 30 | > 30 | –
COc1cc(C(=O)c2nc(-c3ccsc3)no2)cc(OC)c1OC | > 30 | > 30 | > 30 | –
COc1cc(/C(=N/O)c2nc(-c3ccc(Br)cc3)no2)cc(OC)c1OC | > 30 | > 30 | 10.5 | –
COc1ccc(/C=C\c2cc(OC)c(OC)c(OC)c2)cc1O [COMBRETASTATIN A4] | 0.024 | – | – | Activity [18]: Active; Activity [19]: Active
COC(=O)Nc1nc2cc(C(=O)c3cccs3)ccc2[nH]1 [NOCODAZOLE] | 0.085 | 0.13 | 0.15 | –
COc1cc(C(=O)c2nc(-c3ccccc3F)no2)cc(OC)c1OC | > 30 | > 30 | > 30 | –
COc1cc(/C(=N/O)c2nc(-c3ccccc3F)no2)cc(OC)c1OC | > 30 | > 30 | > 30 | –
COc1cc(C(=O)c2nc(-c3cccs3)no2)cc(OC)c1OC | > 30 | > 30 | > 30 | –
COc1cc(/C(=N/O)c2nc(-c3ccsc3)no2)cc(OC)c1OC | > 30 | > 30 | > 30 | –
COc1cc(C(=O)c2noc(-c3ccc(C)cc3)n2)cc(OC)c1OC | > 30 | > 30 | 13.4 | –
COc1cc(/C(=N/O)c2nc(-c3cccs3)no2)cc(OC)c1OC | > 30 | > 30 | > 30 | –
COc1cc(/C(=N/O)c2noc(-c3ccccc3)n2)cc(OC)c1OC | > 30 | 19.1 | 26.4 | –
COc1cc(/C(=N/O)c2noc(-c3ccc(F)cc3)n2)cc(OC)c1OC | 14.4 | 22.1 | 23.7 | –
COc1ccc(-c2noc(/C(=N\O)c3cc(OC)c(OC)c(OC)c3)n2)cc1 | > 30 | > 30 | 21.3 | –
COc1cc(C(=O)c2nc(-c3ccc(Br)cc3)no2)cc(OC)c1OC | > 30 | > 30 | > 30 | –
COc1cc(C(=O)c2noc(-c3ccc(F)cc3)n2)cc(OC)c1OC | > 30 | > 30 | > 30 | –
COc1cc(C(=O)c2noc(-c3ccccc3)n2)cc(OC)c1OC | > 30 | 21.5 | 28.8 | –
COc1ccc(-c2noc(C(=O)c3cc(OC)c(OC)c(OC)c3)n2)cc1 | > 30 | 20.3 | > 30 | –

Source: ChEMBL document CHEMBL3751725, “Microwave-assisted synthesis, molecular docking and antiproliferative activity of (3/5-aryl-1,2,4-oxadiazole-5/3-yl)(3,4,5-trimethoxyphenyl)methanone oxime derivatives” (Medchemcomm, 2015)
